The values that follow come from patent US20160030406A1, “CORRECTORS ACTING THROUGH MSD1 OF CFTR PROTEIN” (VERTEX PHARMACEUTICALS INCORPORATED, priority 2013, published 2016).

The target in test [1] is T1, CFTR fragments (CFTR^370, CFTR^373, CFTR^375, CFTR^380, CFTR^430, CFTR^530, CFTR^653) (Homo sapiens, UniProt P13569).
T1 construct: expressed in transfected cells; host or cells: HEK293, transient transfection
The test can be described thus: CFTR fragment steady-state accumulation by immunoblot in HEK293 cells. Type of test: cell-based. As to conditions: HEK293, 4 hours bortezomib. How it is done:
Steady-state levels of CFTR and its mutants are determined by western blot analysis. HEK293 cells are transiently transfected with the indicated plasmids (Grove, et al., 2011, Mol Biol Cell, 22: 301-14). The transfected cells are allowed to recover for approximately 18 hrs before addition of DMEM and then supplemented with lumacaftor or DMSO (control). The cells are incubated with the correctors for 24 hrs before isolating the cells for western blot analysis. The harvested cells are diluted with 2×SDS sample buffer (100 mM Tris-HCl (pH 6.8)/4% SDS/0.05% Bromophenol Blue/20% glycerol), sonicated, and heated at 37° C. prior to resolving the proteins on SDS-PAGE gels. The proteins are transferred to nitrocellulose membranes and the membranes are probed with the designated antibodies. β-tubulin is used to indicate loading controls.
To localize the region in CFTR on which lumacaftor acts to correct ΔF508-CFTR misfolding, immunoblot and pulse-chase studies are used to monitor the impact of the drug on the accumulation of a set of CFTR and ΔF508-CFTR fragments that expose surfaces present on CFTR folding intermediates.
A set of CFTR fragments with domain boundaries that permitted them to accumulate in unstable or stable states are expressed in HEK293 cells, and the effect of 5 μM lumacaftor on the accumulation of different fragments is determined. As a point of reference, the impact of the proteasome inhibitor bortezomib on CFTR fragment accumulation is also measured.
Cells are treated for 4 hours with bortezomib or 18 hours at 37° C. with lumacaftor. The amount of CFTR fragment accumulation is determined by immunoblot.
To evaluate whether the 362-380 helix is critical for MSD1 folding, the accumulation and sensitivity to lumacaftor of CFTR^373, CFTR^375, and CFTR^380 is analyzed. CFTR^373 accumulation is similar to that of CFTR^370 and insensitive to lumacaftor. CFTR^375 accumulation is similar to CFTR^370, but its amounts are increased around 6-fold by lumacaftor. […] Maximal accumulation of CFTR^380 occurs at 5 μM lumacaftor.
For orientation: Immunoblotting shows a protein as a band on a membrane.

The next test has as its target T2, ΔF508-CFTR (Homo sapiens, UniProt P13569, DEL508-508).
T2 construct: endogenous in cells; host or cells: primary human bronchial epithelial cells from CF subjects homozygous for ΔF508
The note with it: bronchial epithelial cells from CF subjects; cited from earlier work.

T2 sequence (P13569 with tags, fused parts or gaps DEL508-508): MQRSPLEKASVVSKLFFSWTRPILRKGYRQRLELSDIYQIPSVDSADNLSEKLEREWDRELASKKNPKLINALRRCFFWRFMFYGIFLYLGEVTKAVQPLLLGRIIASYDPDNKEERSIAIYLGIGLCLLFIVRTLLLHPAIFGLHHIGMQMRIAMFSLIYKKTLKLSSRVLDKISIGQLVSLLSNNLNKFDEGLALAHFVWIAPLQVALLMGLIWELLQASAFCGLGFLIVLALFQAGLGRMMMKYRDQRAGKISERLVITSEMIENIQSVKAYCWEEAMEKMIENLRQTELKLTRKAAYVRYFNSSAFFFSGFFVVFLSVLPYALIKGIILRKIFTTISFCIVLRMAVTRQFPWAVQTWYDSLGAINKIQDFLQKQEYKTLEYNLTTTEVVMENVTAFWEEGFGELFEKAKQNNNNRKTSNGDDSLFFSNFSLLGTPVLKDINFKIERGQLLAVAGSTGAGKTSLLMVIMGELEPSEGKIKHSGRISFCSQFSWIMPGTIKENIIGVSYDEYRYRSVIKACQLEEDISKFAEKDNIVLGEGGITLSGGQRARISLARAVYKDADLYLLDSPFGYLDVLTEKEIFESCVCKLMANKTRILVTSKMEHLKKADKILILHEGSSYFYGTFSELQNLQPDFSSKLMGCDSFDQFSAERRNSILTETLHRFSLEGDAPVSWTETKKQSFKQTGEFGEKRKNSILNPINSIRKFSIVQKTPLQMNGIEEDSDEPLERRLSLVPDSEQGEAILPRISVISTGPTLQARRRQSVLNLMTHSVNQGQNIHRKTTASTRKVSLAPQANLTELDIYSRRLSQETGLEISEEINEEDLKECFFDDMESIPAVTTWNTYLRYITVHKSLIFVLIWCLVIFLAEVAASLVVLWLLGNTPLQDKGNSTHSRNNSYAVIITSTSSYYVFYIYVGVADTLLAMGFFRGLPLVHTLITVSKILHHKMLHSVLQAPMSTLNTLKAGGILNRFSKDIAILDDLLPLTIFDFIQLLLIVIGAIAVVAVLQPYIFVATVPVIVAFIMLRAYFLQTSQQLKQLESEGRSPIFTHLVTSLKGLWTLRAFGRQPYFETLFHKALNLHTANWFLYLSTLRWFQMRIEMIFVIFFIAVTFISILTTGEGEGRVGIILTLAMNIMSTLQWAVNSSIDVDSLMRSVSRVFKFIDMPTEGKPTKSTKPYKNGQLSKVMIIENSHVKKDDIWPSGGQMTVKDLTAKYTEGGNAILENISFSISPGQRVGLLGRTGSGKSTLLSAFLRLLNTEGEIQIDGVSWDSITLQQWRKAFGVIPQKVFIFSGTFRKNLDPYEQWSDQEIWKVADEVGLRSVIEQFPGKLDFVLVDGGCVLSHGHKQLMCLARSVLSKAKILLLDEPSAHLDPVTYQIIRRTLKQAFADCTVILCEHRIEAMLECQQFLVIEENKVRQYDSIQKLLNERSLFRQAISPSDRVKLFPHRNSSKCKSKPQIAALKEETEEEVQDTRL

For the molecule `CC(C)C[C@H](NC(=O)[C@H](Cc1ccccc1)NC(=O)c1cnccn1)B(O)O` [bortezomib], in test [1], the “accumulation of CFTR^430, sensitivity to proteasome inhibition” value was “relatively insensitive”; the “accumulation of CFTR^653, sensitivity to proteasome inhibition” value was “relatively insensitive”; the “increase in accumulation of CFTR^370” value is 10 fold; the “increase in accumulation of CFTR^530” value worked out at 10 fold.

Regarding `COc1ccc(Cl)cc1Nc1nc(-c2sc(NC(=O)c3ccccc3)nc2C)cs1` [Corr-4a], on ΔF508-CFTR, the ΔF508-CFTR function result is reported as “partially restored”.
